From patent US6288103A, “Indole derivatives as MCP-1 receptor antagonists” (Zeneca Limited, priority 1997, dated 2001)

Target: T1, hMCP-1 receptor, MCP-1 receptor B (CCR2B) (Homo sapiens, UniProt P41597)
T1 construct: expressed in transfected cells; host or cells: CHO-K1 (clone 7, CHO-CCR2B), membrane fragments
T1 sequence (P41597 1-360 isoform P41597-2): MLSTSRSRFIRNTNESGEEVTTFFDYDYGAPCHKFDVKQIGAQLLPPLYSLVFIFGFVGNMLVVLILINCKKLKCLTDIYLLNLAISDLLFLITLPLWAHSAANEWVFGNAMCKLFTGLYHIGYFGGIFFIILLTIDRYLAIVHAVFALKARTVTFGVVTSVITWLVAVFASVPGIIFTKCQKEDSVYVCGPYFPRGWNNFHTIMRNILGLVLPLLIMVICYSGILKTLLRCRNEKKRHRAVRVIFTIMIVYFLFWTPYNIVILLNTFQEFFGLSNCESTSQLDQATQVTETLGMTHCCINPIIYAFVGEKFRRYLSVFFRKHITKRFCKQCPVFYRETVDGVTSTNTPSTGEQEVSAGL
Assay: hMCP-1 receptor-binding assay
Settings: competition with 100 pM 125I-labelled MCP-1, CHO-CCR2B cell membranes, concentration range 0.1-200 μM
Excerpt: a) hMCP-1 Receptor-binding Assay
The MCP-1 receptor B (CCR2B) cDNA was cloned by PCR from THP-1 cell RNA using suitable oligonucleotide primers based on the published MCP-1 receptor sequences (Charo et al., 1994, Proc. Natl. Acad. Sci. USA, 91, 2752). The resulting PCR products were cloned into vector PCR-II™ (InVitrogen, San Diego, Calif.). Error free CCR2B cDNA was subcloned as a Hind III-Not I fragment into the eukaryotic expression vector pCDNA3 (In Vitrogen) to generate pCDNA3/CC-CKR2A and pCDNA3/CCR2B respectively.
Linearised pCDNA3/CCR2B DNA was transfected into CHO-K1 cells by calcium phosphate precipitation (Wigler et al., 1979, Cell, 16, 777). Transfected cells were selected by the addition of Geneticin Sulphate (G418, Gibco BRL) at 1 mg/ml, 24 hours after the cells had been transfected. Preparation of RNA and Northern blotting were carried out as described previously (Needham et al., 1995, Prot. Express. Purific., 6, 134). CHO-K1 clone 7 (CHO-CCR2B) was identified as the highest MCP-1 receptor B expressor.
CHO-CCR2B cells were grown in DMEM supplemented with 10% foetal calf serum, 2 mM glutamine, 1× Non-Essential Amino Acids, 1× Hypoxanthine and Thymidine Supplement and Penicillin-Streptomycin (at 50 μg streptomycin/mi, Gibco BRL). […]

IC50: 10 µM
SMILES: O=C(O)c1cc2ccccc2n1S(=O)(=O)c1ccc(Cl)c(Cl)c1 [Example 2.01, N-(3,4-Dichlorophenylsulphonyl)indole-2-carboxylic acid]
